In patent US20050203191A1, “1-Aminocyclohexane derivatives for the treatment of agitation and other behavioral disorders, especially those associated with alzheimer's disease” (priority 2004, published 2005):

Test system: patients with mild to moderate dementia of the Alzheimer's type on stable chronic doses of a cholinesterase inhibitor
Assay: MD-12: randomized, double-blind, placebo-controlled evaluation of memantine added to stable cholinesterase inhibitor
Assay type: in vivo, human
Settings: MD-12, on cholinesterase inhibitor, week 24, ITT LOCF
Experimental: The primary endpoints for MD-12 were ADAS-cog and CIBIC-plus. Other endpoints for MD-12 included ADCS-ADL23, NPI, MMSE and RUD (Resource Utilization in Dementia).
The five memantine trials were evaluated using an analysis of patient for a population having an NPI agitation subscale score of >4 ([…]) and for a population having an NPI score of <4 ([…]). For each NPI population, changes in SIB, ADAS-cog and/or ADL were calculated using the least square (LS) mean difference for memantine and placebo-treated patients. Similarly, for each NPI population, the raw mean difference between memantine and placebo was calculated for the CIBIC-plus results.
For primary efficacy measurements the comparison between memantine and placebo was performed using two-way analysis of covariance (ANCOVA) with treatment group and center as the two factors, and the baseline scores as covariate. Both the LOCF imputation approach and the OC approach are performed at the end of the trials.
For secondary efficacy measurements, the comparison between memantine and placebo was performed using two-way analysis of covariance (ANCOVA) with treatment group and center as the two main effects, and the baseline scores as covariate. Descriptive statistics were calculated by Visit. Again, all analyses were performed using both the LOCF imputation approach and the OC approach.
Results of ANCOVA were summarized using least square (LS) means for each treatment group with corresponding standard error (SE), the between-treatment (2-24 week) difference in the least square means with corresponding 95% confidence interval, and the between-treatment p-value corresponds to the SAS Type III sum of squares.
In data Tables 5-19, the Overall Memantine versus Placebo columns of studies MD-01, MD-02, MD-10 and MD-12 used an ANCOVA model with baseline total score as covariate, treatment and study center as factors for SIB, ADL or ADAS-cog; CMH test controlling for study center for CIBIC-Plus. For MZ-9605, results are based on arithmetic means and the Wilcoxon-Mann-Whitney test. The Agitation score columns/NPI/antipsychotics columns, except CIBIS-Plus, calculated the p-values and LS mean differences within the subgroups from an ANCOVA model with baseline total score as covariate, subgroup (yes/no), treatment, and treatment by subgroup interactions as factors. For CIBIS-Plus, the p-values and raw mean differences within a subgroup were calculated using the CMH test controlling for study center.
Patients in the same five trials described above were stratified into two sub-groups in a second analysis, those with an NPI total score in the top quartile (≧75%), or those more severely impaired at baseline, and those with an NPI total score <75%, or less severe impairment at baseline. Similar to as in Example 1, results were evaluated using the change in SIB (cognitive endpoint), and change in ADCS-ADL (functional endpoint), using the LS mean. The change in the CIBIC-plus (global endpoint) was assessed using the raw mean.
A sub-population of patients from the five trials, MD-01, MD-02, MD-10, MD-12, and MZ-9605, were concurrently taking antipsychotics.

[1] = NPI total score ≧=75% (top quartile)
[2] = antipsychotics usage “YES” (N = n)
[3] = antipsychotics usage “YES” (N = y)
[4] = baseline NPI agitation score <4
[5] = baseline NPI agitation score ≧=4

## CC12CC3CC(C)(C1)CC(N)(C3)C2 [memantine, 1-amino-3,5-dimethyl adamantane]
  ADAS-COG (change) LS Mean Diff., MEM v. PLA (second parameter of Table 18): −0.24
NPI total score <75%
  ADAS-cog (change) LS Mean Diff., MEM v. PLA: −0.39
  ADAS-cog (change) mean: 0.53
  ADCS-ADL (change) LS Mean Diff., MEM v. PLA: −0.76
  ADCS-ADL (change) mean: −3.0
  CIBIC-PLUS Raw Mean Diff., MEM v. PLA: −0.041
  CIBIC-PLUS mean: 4.3
NPI total score <75%, listed as MEM
  CIBIC-PLUS Raw Mean Diff., MEM v. PLA: −0.1
[1]
  ADAS-cog (change) LS Mean Diff., MEM v. PLA: −1.53
  ADAS-cog (change) mean: 0.05
  ADCS-ADL (change) LS Mean Diff., MEM v. PLA: 2.0
  ADCS-ADL (change) mean: −2.8
  CIBIC-PLUS Raw Mean Diff., MEM v. PLA: 0.0
  CIBIC-PLUS mean: 4.6
NPI total score ≧=75% (top quartile), listed as MEM
  ADCS-ADL (change) LS Mean Diff., MEM v. PLA: 2.00
[2]
  ADAS-COG (change) mean (second parameter of Table 18): −2.5
  ADAS-cog (change) LS Mean Diff., MEM v. PLA: −0.74
  ADAS-cog (change) mean: 0.1
  CIBIC-PLUS Raw Mean Diff., MEM v. PLA: −0.06
  CIBIC-PLUS mean: 4.33
[3]
  ADAS-COG (change) LS Mean Diff., MEM v. PLA (second parameter of Table 18): .43
  ADAS-COG (change) mean (second parameter of Table 18): −6.0
  ADAS-cog (change) LS Mean Diff., MEM v. PLA: .4
  ADAS-cog (change) mean: 3.2
  CIBIC-PLUS Raw Mean Diff., MEM v. PLA: 0.1
  CIBIC-PLUS mean: 4.74
[4]
  ADAS-cog (change) LS Mean Diff., MEM v. PLA: −0.72
  ADAS-cog (change) mean: 0.35
  ADCS-ADL (change) LS Mean Diff., MEM v. PLA: −0.56
  ADCS-ADL (change) mean: −2.8
  CIBIC-PLUS Raw Mean Diff., MEM v. PLA: −0.1
  CIBIC-PLUS mean: 4.3
[5]
  ADAS-cog (change) LS Mean Diff., MEM v. PLA: −0.27
  ADAS-cog (change) mean: 0.98
  ADCS-ADL (change) LS Mean Diff., MEM v. PLA: 3.54
  ADCS-ADL (change) mean: −3.7
  CIBIC-PLUS Raw Mean Diff., MEM v. PLA: no difference
  CIBIC-PLUS mean: 4.7
Baseline NPI agitation score ≧=4, listed as MEM
  CIBIC-PLUS Raw Mean Diff., MEM v. PLA: 0.0
overall
  ADAS-cog (change) LS Mean Diff., MEM v. PLA: −0.70
  ADAS-cog (change) LS mean: 0.10
  ADCS-ADL (change) LS Mean Diff., MEM v. PLA: −0.20
  ADCS-ADL (change) LS mean: −3.00
  CIBIC-PLUS LS mean: 4.38
  CIBIC-PLUS Raw Mean Diff., MEM v. PLA: −0.04
